Measurements published in PubChem BioAssay (NCI).
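Method: 48-hour compound exposure of cells in 96-well plates, five concentrations, linear interpolation of endpoints. Definition used: TGI = concentration required for complete inhibition of growth.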

Legend:
Assay in all cases: NCI-60 cell line screen, 48 h
OVCAR-3 ovarian = test system: OVCAR-3 ovarian
EKVX NSCLC = test system: EKVX NSCLC
M14 melanoma = test system: M14 melanoma
HCC-2998 colon = test system: HCC-2998 colon
MDA-N = test system: MDA-N
MALME-3M melanoma = test system: MALME-3M melanoma

Structure (SMILES)	TGI (OVCAR-3 ovarian) [µM]	TGI (EKVX NSCLC) [µM]	TGI (M14 melanoma) [µM]	TGI (HCC-2998 colon) [µM]	TGI (MDA-N) [µM]	TGI (MALME-3M melanoma) [µM]
CC(=O)O[C@H]1C(=O)[C@@]2(C)[C@H]([C@H](OC(=O)c3ccoc3)[C@]3(O)C[C@H](OC(=O)[C@H](O)[C@@H](NC(=O)c4ccccc4)c4ccccc4)C(C)=C1C3(C)C)[C@]1(OC(C)=O)CO[C@@H]1C[C@@H]2O	0.752	> 12.5	> 12.5	0.998		
C=CCCC1(CC(Sc2ccccc2)P(=O)(c2ccccc2)c2ccccc2)OCCO1 (centres undefined)	> 10	> 10	> 10	> 10	> 10	> 10
CC1(C)OC(=O)N(c2ccccc2)C12C=Cc1cc([N+](=O)[O-])ccc1O2 (centres undefined)	> 100	98.7	> 100	> 100	50.8	
N#Cc1c(-c2ccccc2)[nH]c2ccc(Cl)cc2c1=O	> 100	> 100	> 100	> 100	> 100	> 100
CCOC(=O)C1C(=O)CC1(C)C (centres undefined)	> 10	> 10	> 10	> 10	> 10	> 10
C(/C=C/Nc1ccc(Oc2ccccc2)cc1)=Nc1ccc(Oc2ccccc2)cc1	34.3	34.7		29.4	29.7	33.7
CC(=O)OC1C(Oc2c(C)cc3c(c2O)[C@@H](C)CC[C@@H]3[C@@H](C)CCC=C(C)C)OCC(O)C1O (some centres undefined)	29.8		30.9		36	
Nc1nc(-c2ccccc2)cc(-c2ccc(OCc3ccccc3)cc2O)n1	89.1	> 100	> 100	> 100	> 100	> 100
CC(CC[C@@]1(C)C(=O)CCC2O[C@]21C)[C@H]1C[C@@H](c2ccoc2)OC1=O (some centres undefined)	66.1	> 100	> 100	> 100	> 100	81.3
Cc1ccc2c(c1)CC1(Cc3ccccc3C1=O)C2=O (centres undefined)	> 100	> 100	> 100	> 100	> 100	> 100
COc1cc(OC)c2c(C)cc(=O)oc2c1	> 100	> 100	> 100		> 100	> 100
O=C(NC(Cc1ccccc1)(Cc1ccc(O)cn1)C(=O)O)c1ccccc1 (centres undefined)	> 100	> 100	> 100	> 100	> 100	> 100
O=C1c2ccccc2C(=O)N1CCCCNOCCCN1C(=O)c2ccccc2C1=O	> 100	> 100	> 100	> 100	> 100	> 100
CCOC(C)O[C@H]1C(=O)OCC1(C)C (some centres undefined)	> 100	> 100	> 100	> 100	> 100	> 100
Cc1ccc(S(=O)(=O)N/N=C2/CCCOC2)cc1	> 100	> 100	> 100	> 100	> 100	> 100
Nc1nc(-[n+]2ccc(-c3ccncc3)cc2)nc(Cl)c1Cl	33.5	> 100	> 100	> 100	> 100	> 100
Cc1ccc2c3c1O[C@H]1c4[nH]c5ccccc5c4C[C@@]4(O)[C@@H](C2)N(CC2CC2)CC[C@]314	27.5	32.9	32.4	12.5	30.5	28.4
CCOC(=O)c1ccc(NCc2ccc3oc(=O)c(-c4ccccc4)nc3c2)cc1	90.5	> 100	> 100	> 100	50.8	38.8
COC(=O)Nc1nc2ccc(S(=O)(=O)SC)cc2[nH]1	> 100	62.5	18.4	42.4		25.6
C[C@@H](c1ccccc1)n1c(N)c(C#N)c2ccc([N+](=O)[O-])cc2c1=O				39.4	78.4	
CSc1cc(Cl)c(C)cc1S(=O)(=O)NC(=O)NNc1cccc(C(F)(F)F)n1	> 100	> 100	> 100	> 100	> 100	> 100

Structure (SMILES)	TGI (OVCAR-3 ovarian) [µM]	TGI (EKVX NSCLC) [µM]	TGI (M14 melanoma) [µM]	TGI (HCC-2998 colon) [µM]	TGI (MDA-N) [µM]	TGI (MALME-3M melanoma) [µM]
O=[N+]([O-])c1ccc(S(=O)(=O)n2c3ccc(Br)cc3c3nc4ccccc4nc32)cc1	> 100		> 100	> 100	> 100	
N#C[C@@H](c1ccccn1)c1ncccc1[N+](=O)[O-]	> 100	> 100	> 100	> 100	> 100	> 100
NNC(=S)N/N=C(/C(=O)Nc1ccc(Cl)c(Cl)c1)C(C1OC(=O)c2ccccc21)[N+](=O)[O-] (centres undefined)	> 100	> 100	> 100	> 100	> 100	> 100
COC1=C(OC)C(=O)C(Cc2c(C)nc3sccn23)=C(C)C1=O	34.3	29	36.6	40.3	26	31
CC(C)=CCC(O)[C@](C)(O)[C@H]1[C@H](O)C[C@@]2(C)[C@@H]3CCc4cc(O)c(OC5OC(CO)C(O)C(O)C5O)cc4C3(C)C(=O)C[C@]12C (some centres undefined)	> 100	> 100	> 100	> 100	> 100	> 100
Cc1ccc([N+](=O)[O-])c2c(NCCC[N+](C)(C)[O-])c3ccccc3nc12	> 41.3	3.88	7.42	2.55		2.78
N#C/C(=C/NC(N)=S)C(N)=O	> 100	> 100	> 100	> 100	> 100	
CCN(CC)CCSc1c2cc(OC)ccc2nc2ccc(OC)cc12	8.07	29.7	> 32.3	40.5	8.97	7.74
Clc1ccc(-c2cc3nc4ccccc4nc3o2)cc1	> 100	> 100	> 100	> 100	> 100	> 100
CCN1CCN(c2nc3ccccc3c3c2CCOc2ccccc2-3)CC1	> 100	> 100	38.4	37.3	> 55.8	35.3
O=C1NC2O[C@H](CNC(=O)c3cc(Br)c[nH]3)CC2(O)N1 (mixture of isomers)	> 100	> 100	> 100			> 100
CC(C)OC(=O)/C=C/C(=O)O/C=C/[N+](=O)[O-]	> 100	> 100	> 100	50.2		63.7
CCOc1ncn(-c2ccc(NC(=S)NC3OC(CO)C(O)C(O)C3O)cc2)n1 (centres undefined)	> 100	> 100	> 100	> 100	> 100	
COc1cc(Br)cc2cc(-c3cn4c(n3)sc3ccccc34)c(=O)oc12	54.5	52.1	> 75			
O=C(c1cccs1)N1CCc2ccccc2C1	> 100	> 100	> 100	> 100	92.3	> 100
CCOC(=O)Cc1nc2cc(F)c(F)cc2[nH]c1=O	> 100	> 100	> 100	> 100	> 100	> 100
O=C(/C=C/c1ccc2ccccc2c1)NCc1ccc(C(=O)NCCc2ccccc2)cc1	> 100		> 100	> 100	> 100	
CCc1cc(Cc2cc(CC)c(NC(=O)C(=O)CC(=O)c3sc(-c4cccnc4)nc3C)c(CC)c2)cc(CC)c1NC(=O)C(=O)CC(=O)c1sc(-c2cccnc2)nc1C	> 100	> 100	> 100	> 100	> 100	> 100
c1ccc(CNc2nncc3[nH]cnc23)cc1	> 100	> 100	> 100	> 100	> 100	> 100
CCOC1=NC(O)c2cccn2-c2sccc21 (centres undefined)	> 100		> 100	> 100	> 100	> 100
COc1cc(-c2nc3ccccn3c2/N=C/c2cc(Br)cc(Br)c2O)ccc1O	39	54.5	38.5	> 100	59	57.8

Structure (SMILES)	TGI (OVCAR-3 ovarian) [µM]	TGI (EKVX NSCLC) [µM]	TGI (M14 melanoma) [µM]	TGI (HCC-2998 colon) [µM]	TGI (MDA-N) [µM]	TGI (MALME-3M melanoma) [µM]
N#Cc1[nH]c(=O)n(-c2ccccc2)c1N	> 10	> 10	> 10	> 10	> 10	> 10
CCO/C=N\C1=C(C#N)SC2=N/C(=C\c3ccc(OC)cc3)C(=O)N21		> 100	> 100	> 100	> 100	> 100
O=C(c1ccco1)N(C(=S)OCCOc1ccccc1)c1ccccc1	32.2	52.4	37.3	37.9	33.9	40
COCc1nc2c(OC)c(-c3nc4nc(N5CCN(C)CC5)ccc4[nH]3)cc(OC)c2n1C	> 100	81.2	43.3	32.4	> 100	35.6
COC(=O)c1cc2c(cc1CC(Cc1ccc3c(c1)CCCC3)C(=O)OC)CCCC2 (centres undefined)	> 100		> 100	93.8	> 100	> 100
O=C(NCP(=O)(c1ccccc1)c1ccccc1)OCc1ccccc1	> 100	> 100	> 100	> 100	> 100	> 100
CC(=O)[C@@H](C)C(=O)N1C(=O)OC[C@@]12[C@@H]1CC[C@@H](C1)C2(C)C		> 100	> 100	> 100	> 100	> 100
CN(C(=O)Cc1cccc(N=C=S)c1)[C@H]1CCCC[C@@H]1N1CCCC1	28	39.6	41.1		27.7	40.5
CCOC(=O)c1cc2c3ccn(Cc4ccccc4)c3c3c(C)[nH]oc3c2n1	> 100	> 100	> 100	> 100	> 100	> 100
O=C1CC(c2cccc([N+](=O)[O-])c2)C2(C(=O)NC(=O)NC2=O)C(c2cccc([N+](=O)[O-])c2)C1 (centres undefined)	58.2		> 100		> 100	61.8
COC(=O)c1cc2c(cc1Cl)Sc1nnc(Nc3ccc(C)cc3)n1S2(=O)=O	5.77	27.7	27.6	17.5	20.6	26.3
CCOC(=O)c1c(N2CCOCC2)[nH]c(=O)c(C(c2c(Cl)cccc2Cl)c2c(O)c(C(=O)OCC)c(N3CCOCC3)[nH]c2=O)c1O	12.1	32.9	5.15	34		7.91
CSc1nnc(SC)nn1	31.6	30.8	28.9		30.1	27
Nc1ccc(Cc2c(N)[nH]c(=O)[nH]c2=O)cc1	> 100		> 100	> 100	> 100	> 100
CO/C=C(/C(=O)OC)c1ccccc1COc1cccc(C(F)(F)F)c1	55	> 100	> 100	> 100	> 100	29.4
O=c1cc(N2CCCC2)[nH]c(=O)n1-c1cccc(Cl)c1	> 100	> 100	> 100	> 100	> 100	> 100
O=C1NC(=S)NC(=O)C1C(c1ccc(O)cc1)C1C(=O)NC(=S)NC1=O	> 100		> 100		> 100	> 100
CN(C)CCCN=c1c2ccccc2n(O)c2ccccc12	> 100	> 100	> 100		> 100	> 100
O=C(Nc1nnc(-c2ccc(Cl)cc2)o1)C(SC(=S)N1CCOCC1)c1ccccc1 (centres undefined)	30.2	59.7	> 100			> 100
CC(C)=C[C@H]1CCC2(OCCO2)[C@]1(C)CO		> 100	> 100	> 100	> 100	> 100
CC1(C)C[C@@H]2C1CCC1(C)CC2(O)CC[C@H]1O (some centres undefined)	> 100	> 100	> 100			> 100
